Columns and labels:
[1] = target: NUAK family SNF1-like kinase 1 (Homo sapiens) (UniProt O60285); conditions: Compound concentration 1000.0 nM
[2] = target: Wee1-like protein kinase 2 (Homo sapiens) (UniProt P0C1S8); conditions: Compound concentration 1000.0 nM
[3] = target: STE20-like serine/threonine-protein kinase (Homo sapiens) (UniProt Q9H2G2); conditions: Compound concentration 1000.0 nM
[4] = target: Mast/stem cell growth factor receptor Kit (Homo sapiens) (UniProt P10721); conditions: Compound concentration 1000.0 nM
[5] = target: RAF proto-oncogene serine/threonine-protein kinase (Homo sapiens) (UniProt P04049); conditions: Compound concentration 1000.0 nM
[6] = target: Histamine H1 receptor (Homo sapiens) (UniProt P35367); conditions: Compound concentration 10.0 uM
[7] = target: Myosin light chain kinase, smooth muscle (Homo sapiens) (UniProt Q15746); conditions: Compound concentration 1000.0 nM
[8] = target: T1, Muscarinic acetylcholine receptor M2 (Homo sapiens) (UniProt P08172); conditions: Compound concentration 10.0 uM
T1 sequence (whole entry): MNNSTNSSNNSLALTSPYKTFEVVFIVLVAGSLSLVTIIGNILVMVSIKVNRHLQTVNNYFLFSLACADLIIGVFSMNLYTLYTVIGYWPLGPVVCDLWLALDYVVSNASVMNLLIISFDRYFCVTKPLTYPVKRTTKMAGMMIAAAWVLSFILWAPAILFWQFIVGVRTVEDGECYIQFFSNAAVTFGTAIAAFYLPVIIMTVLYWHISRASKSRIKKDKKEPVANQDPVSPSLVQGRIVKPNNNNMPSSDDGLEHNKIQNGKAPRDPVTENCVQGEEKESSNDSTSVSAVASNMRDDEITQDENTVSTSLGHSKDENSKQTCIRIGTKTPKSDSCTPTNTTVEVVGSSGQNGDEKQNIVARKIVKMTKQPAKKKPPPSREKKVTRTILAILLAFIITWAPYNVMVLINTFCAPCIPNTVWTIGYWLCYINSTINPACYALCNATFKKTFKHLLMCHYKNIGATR

[9] = target: Serine/threonine-protein kinase WNK2 (Homo sapiens) (UniProt Q9Y3S1); conditions: Compound concentration 1000.0 nM
[10] = target: Cyclin-dependent kinase 8 (Homo sapiens) (UniProt P49336); conditions: Compound concentration 1000.0 nM
[11] = target: High affinity nerve growth factor receptor (Homo sapiens) (UniProt P04629); conditions: Compound concentration 1000.0 nM
[12] = target: Serine/threonine-protein kinase LATS1 (Homo sapiens) (UniProt O95835); conditions: Compound concentration 1000.0 nM
[13] = target: Interleukin-1 receptor-associated kinase 1 (Homo sapiens) (UniProt P51617); conditions: Compound concentration 1000.0 nM
[14] = target: Uncharacterized serine/threonine-protein kinase SBK3 (Homo sapiens) (UniProt P0C264); conditions: Compound concentration 1000.0 nM
[15] = target: Ribosomal protein S6 kinase alpha-3 (Homo sapiens) (UniProt P51812); conditions: Compound concentration 1000.0 nM
[16] = system: Phosphatidylinositol 4,5-bisphosphate 3-kinase catalytic subunit alpha isoform (Homo sapiens), P42336 [E542K]; conditions: Compound concentration 1000.0 nM
[17] = target: Calcium/calmodulin-dependent protein kinase type 1G (Homo sapiens) (UniProt Q96NX5); conditions: Compound concentration 1000.0 nM
[18] = target: Dual specificity mitogen-activated protein kinase kinase 2 (Homo sapiens) (UniProt P36507); conditions: Compound concentration 1000.0 nM
[19] = target: Homeodomain-interacting protein kinase 3 (Homo sapiens) (UniProt Q9H422); conditions: Compound concentration 1000.0 nM
[20] = target: Tyrosine-protein kinase Fer (Homo sapiens) (UniProt P16591); conditions: Compound concentration 1000.0 nM
[21] = target: Serine/threonine-protein kinase 36 (Homo sapiens) (UniProt Q9NRP7); conditions: Compound concentration 1000.0 nM
[22] = target: Non-receptor tyrosine-protein kinase TNK1 (Homo sapiens) (UniProt Q13470); conditions: Compound concentration 1000.0 nM
[23] = target: 5-hydroxytryptamine receptor 2B (Homo sapiens) (UniProt P41595); conditions: Compound concentration 10.0 uM
[24] = target: D(4) dopamine receptor (Homo sapiens) (UniProt P21917); conditions: Compound concentration 10.0 uM
[25] = target: Non-receptor tyrosine-protein kinase TYK2 (Homo sapiens) (UniProt P29597); conditions: Compound concentration 1000.0 nM
[26] = target: Cyclin-dependent kinase 15 (Homo sapiens) (UniProt Q96Q40); conditions: Compound concentration 1000.0 nM
[27] = target: Microtubule-associated serine/threonine-protein kinase 1 (Homo sapiens) (UniProt Q9Y2H9); conditions: Compound concentration 1000.0 nM
[28] = target: Dual specificity tyrosine-phosphorylation-regulated kinase 2 (Homo sapiens) (UniProt Q92630); conditions: Compound concentration 1000.0 nM
[29] = target: Cyclin-dependent kinase 18 (Homo sapiens) (UniProt Q07002); conditions: Compound concentration 1000.0 nM
[30] = target: T2, Muscarinic acetylcholine receptor M5 (Homo sapiens) (UniProt P08912); conditions: Compound concentration 10.0 uM
T2 sequence (whole entry): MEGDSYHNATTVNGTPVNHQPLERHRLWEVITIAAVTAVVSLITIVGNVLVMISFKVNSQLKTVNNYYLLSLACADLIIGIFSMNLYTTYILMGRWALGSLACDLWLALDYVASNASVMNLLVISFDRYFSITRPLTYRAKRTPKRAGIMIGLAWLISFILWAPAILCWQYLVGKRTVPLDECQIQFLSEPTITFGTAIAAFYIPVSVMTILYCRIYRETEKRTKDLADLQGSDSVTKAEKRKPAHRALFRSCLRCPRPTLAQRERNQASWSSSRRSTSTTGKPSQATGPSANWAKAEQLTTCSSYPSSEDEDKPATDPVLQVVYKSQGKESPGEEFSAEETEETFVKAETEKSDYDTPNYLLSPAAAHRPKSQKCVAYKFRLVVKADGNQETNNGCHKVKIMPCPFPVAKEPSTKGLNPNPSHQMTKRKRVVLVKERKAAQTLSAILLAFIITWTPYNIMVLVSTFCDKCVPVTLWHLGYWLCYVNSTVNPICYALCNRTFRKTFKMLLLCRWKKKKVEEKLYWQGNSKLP

[31] = target: Dual specificity testis-specific protein kinase 1 (Homo sapiens) (UniProt Q15569); conditions: Compound concentration 1000.0 nM
Sequence of Dual specificity testis-specific protein kinase 1 (Homo sapiens) (Q15569 whole entry, looked up): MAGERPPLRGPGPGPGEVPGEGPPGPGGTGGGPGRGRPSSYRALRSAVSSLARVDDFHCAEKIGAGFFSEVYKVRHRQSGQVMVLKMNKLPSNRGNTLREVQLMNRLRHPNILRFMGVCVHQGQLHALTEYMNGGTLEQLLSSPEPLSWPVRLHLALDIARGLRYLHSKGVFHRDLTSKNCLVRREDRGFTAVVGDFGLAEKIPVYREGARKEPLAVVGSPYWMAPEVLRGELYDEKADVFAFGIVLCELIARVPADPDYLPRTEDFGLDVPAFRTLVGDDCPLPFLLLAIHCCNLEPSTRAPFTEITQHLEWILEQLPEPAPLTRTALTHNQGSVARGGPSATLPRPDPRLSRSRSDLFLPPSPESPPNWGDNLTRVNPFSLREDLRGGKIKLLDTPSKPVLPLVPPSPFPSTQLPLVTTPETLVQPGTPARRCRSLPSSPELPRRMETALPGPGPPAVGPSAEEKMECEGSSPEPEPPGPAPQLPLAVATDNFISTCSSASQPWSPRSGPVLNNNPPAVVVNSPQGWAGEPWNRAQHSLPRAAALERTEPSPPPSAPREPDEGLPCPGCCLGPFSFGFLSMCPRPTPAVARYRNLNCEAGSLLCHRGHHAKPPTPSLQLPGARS

Sequence of Interleukin-1 receptor-associated kinase 1 (Homo sapiens) (P51617 whole entry, looked up): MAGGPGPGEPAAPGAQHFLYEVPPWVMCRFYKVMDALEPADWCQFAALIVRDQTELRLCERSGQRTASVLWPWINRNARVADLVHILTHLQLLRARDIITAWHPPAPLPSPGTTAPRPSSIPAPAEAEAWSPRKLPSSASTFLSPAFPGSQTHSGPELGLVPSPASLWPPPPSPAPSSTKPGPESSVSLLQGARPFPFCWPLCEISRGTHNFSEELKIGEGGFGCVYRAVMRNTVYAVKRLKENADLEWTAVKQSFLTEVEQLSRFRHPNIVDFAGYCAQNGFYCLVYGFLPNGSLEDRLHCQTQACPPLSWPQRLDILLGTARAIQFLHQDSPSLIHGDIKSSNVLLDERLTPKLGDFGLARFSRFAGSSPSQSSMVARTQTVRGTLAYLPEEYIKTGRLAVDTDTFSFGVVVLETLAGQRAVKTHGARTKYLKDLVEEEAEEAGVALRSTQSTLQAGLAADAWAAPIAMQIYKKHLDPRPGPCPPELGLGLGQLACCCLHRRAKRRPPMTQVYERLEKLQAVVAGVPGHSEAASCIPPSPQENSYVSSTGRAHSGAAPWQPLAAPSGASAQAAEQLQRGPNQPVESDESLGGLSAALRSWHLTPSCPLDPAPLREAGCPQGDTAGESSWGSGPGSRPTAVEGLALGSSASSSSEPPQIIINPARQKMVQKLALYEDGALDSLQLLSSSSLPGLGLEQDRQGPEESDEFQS
Sequence of D(4) dopamine receptor (Homo sapiens) (P21917 whole entry): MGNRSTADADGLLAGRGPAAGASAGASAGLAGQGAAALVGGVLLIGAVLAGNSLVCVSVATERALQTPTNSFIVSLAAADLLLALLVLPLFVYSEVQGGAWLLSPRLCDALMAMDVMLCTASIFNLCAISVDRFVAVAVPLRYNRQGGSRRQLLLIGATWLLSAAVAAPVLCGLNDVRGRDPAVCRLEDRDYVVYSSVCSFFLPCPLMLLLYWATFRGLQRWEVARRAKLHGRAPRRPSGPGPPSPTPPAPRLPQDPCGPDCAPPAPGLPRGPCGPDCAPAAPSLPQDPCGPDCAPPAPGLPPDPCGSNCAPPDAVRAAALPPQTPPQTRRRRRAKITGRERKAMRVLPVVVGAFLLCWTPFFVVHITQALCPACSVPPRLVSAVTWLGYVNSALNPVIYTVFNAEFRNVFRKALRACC
Sequence of Histamine H1 receptor (Homo sapiens) (P35367 whole entry): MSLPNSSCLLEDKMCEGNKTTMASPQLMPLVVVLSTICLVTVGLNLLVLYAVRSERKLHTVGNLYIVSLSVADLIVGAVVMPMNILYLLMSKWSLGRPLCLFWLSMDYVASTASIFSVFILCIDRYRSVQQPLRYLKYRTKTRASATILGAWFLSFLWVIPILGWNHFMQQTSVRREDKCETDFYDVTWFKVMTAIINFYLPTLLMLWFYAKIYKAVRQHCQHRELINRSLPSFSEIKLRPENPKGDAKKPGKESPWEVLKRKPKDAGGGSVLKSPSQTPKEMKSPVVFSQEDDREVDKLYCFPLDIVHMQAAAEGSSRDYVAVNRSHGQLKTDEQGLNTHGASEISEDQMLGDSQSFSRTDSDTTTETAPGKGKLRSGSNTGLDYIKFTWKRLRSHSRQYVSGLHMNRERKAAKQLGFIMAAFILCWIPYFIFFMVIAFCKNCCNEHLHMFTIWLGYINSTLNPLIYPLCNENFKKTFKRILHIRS
Sequence of Myosin light chain kinase, smooth muscle (Homo sapiens) (Q15746 whole entry): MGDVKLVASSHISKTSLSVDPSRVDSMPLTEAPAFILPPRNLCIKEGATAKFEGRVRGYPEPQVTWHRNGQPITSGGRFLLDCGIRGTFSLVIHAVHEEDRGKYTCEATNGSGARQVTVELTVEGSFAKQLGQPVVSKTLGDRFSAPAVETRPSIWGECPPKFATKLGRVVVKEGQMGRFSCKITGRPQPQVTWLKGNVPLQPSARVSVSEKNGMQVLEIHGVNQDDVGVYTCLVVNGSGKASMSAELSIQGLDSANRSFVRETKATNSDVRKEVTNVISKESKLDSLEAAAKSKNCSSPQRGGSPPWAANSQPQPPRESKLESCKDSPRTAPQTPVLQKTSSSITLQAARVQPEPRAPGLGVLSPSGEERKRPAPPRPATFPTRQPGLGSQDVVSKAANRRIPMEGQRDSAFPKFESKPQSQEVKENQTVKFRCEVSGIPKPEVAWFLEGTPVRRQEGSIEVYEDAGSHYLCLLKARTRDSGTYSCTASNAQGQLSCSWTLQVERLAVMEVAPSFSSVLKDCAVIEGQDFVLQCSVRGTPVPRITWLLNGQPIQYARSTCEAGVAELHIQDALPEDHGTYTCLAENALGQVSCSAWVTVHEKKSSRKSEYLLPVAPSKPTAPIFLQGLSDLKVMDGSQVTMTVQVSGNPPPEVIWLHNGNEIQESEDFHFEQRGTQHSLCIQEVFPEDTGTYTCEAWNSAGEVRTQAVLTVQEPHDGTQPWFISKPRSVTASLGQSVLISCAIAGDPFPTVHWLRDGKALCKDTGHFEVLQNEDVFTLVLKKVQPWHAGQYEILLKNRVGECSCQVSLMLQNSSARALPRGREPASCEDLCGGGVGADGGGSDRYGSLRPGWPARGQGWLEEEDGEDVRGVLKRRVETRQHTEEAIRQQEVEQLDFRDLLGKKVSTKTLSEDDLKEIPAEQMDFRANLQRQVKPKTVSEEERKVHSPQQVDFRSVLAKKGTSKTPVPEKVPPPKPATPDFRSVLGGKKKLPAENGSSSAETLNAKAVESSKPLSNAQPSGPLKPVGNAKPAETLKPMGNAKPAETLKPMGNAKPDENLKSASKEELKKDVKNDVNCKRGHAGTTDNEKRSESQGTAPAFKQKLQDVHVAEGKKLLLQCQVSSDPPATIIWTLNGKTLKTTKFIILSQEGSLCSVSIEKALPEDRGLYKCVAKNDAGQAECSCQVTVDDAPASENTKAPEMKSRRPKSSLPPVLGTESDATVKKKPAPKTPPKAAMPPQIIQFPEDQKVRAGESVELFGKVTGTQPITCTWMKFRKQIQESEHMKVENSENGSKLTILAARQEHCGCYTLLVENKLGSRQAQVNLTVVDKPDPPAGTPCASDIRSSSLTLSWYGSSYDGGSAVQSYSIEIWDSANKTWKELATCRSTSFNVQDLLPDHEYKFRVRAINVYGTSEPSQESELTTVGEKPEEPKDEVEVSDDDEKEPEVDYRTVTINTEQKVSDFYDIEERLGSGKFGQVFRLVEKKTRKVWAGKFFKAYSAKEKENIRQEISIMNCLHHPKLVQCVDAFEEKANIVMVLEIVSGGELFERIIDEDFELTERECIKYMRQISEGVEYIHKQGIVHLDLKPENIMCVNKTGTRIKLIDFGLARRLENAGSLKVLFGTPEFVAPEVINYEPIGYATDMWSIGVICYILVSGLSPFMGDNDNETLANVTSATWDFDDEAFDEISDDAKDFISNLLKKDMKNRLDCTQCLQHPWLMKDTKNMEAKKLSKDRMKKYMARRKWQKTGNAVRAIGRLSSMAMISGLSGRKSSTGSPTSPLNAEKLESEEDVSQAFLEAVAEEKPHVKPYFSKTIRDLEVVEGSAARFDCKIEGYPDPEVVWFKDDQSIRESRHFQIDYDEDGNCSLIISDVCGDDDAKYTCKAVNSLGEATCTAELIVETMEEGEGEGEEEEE
Sequence of Wee1-like protein kinase 2 (Homo sapiens) (P0C1S8 whole entry, looked up): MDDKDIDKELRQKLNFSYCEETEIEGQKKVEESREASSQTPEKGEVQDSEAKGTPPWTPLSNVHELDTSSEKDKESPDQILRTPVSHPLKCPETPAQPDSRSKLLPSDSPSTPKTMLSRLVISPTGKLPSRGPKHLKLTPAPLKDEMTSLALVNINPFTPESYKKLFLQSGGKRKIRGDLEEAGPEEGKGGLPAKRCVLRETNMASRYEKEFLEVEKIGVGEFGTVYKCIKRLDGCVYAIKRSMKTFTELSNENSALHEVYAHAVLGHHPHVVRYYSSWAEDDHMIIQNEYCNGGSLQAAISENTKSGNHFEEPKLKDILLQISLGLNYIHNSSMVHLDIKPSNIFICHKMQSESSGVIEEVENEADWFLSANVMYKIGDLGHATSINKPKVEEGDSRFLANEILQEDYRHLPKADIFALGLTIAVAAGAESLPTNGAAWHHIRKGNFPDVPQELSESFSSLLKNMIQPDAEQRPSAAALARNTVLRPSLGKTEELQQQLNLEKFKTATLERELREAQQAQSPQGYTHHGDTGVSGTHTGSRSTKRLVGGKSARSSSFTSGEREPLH

CN(C)CC#Cc1ccc(OCCCc2sc(N3CCc4cccc(C(=O)Nc5nc6ccccc6s5)c4C3)nc2C(=O)O)c(F)c1 [A-1155463]
inactive: residual activity [1] 80% | residual activity [2] 100% | residual activity [3] 100% | residual activity [4] 85% | residual activity [5] 97% | inhibition [6] 39.8% | residual activity [7] 81% | inhibition [8] 34.7% | residual activity [9] 96% | residual activity [10] 69% | residual activity [11] 100% | residual activity [12] 76% | residual activity [13] 100% | residual activity [14] 100% | residual activity [15] 100% | residual activity [16] 72% | residual activity [17] 94% | residual activity [18] 100% | residual activity [19] 87% | residual activity [20] 100% | residual activity [21] 99% | residual activity [22] 98% | inhibition [23] 5.67% | inhibition [24] -3.48% | residual activity [25] 75% | residual activity [26] 100% | residual activity [27] 89% | residual activity [28] 100% | residual activity [29] 100% | inhibition [30] 12.6% | residual activity [31] 100%

Source: ChEMBL document CHEMBL4507311, “Data for DCP probe A-1155463” (2021)
